# Assay results: US20260216138A1, “IDENTIFICATION OF OTUD7B INHIBITOR 7BI AND ITS APPLICATION IN REDUCING GROWTH OF NSCLC AND LEUKEMIA CELLS” (The University of North Carolina at Chapel Hill, priority 2023, published 2026)
# Columns and labels:
# USP9X = molecular target: T1, USP9X (Homo sapiens, UniProt Q93008); assay: In vitro USP9X deubiquitination assay, K11-linked di-ub cleavage; format: biochemical
# T1 construct: USP9X (residues 1551-1970); GST (N, cleaved yes); made in house; host or cells: E. coli BL21-Codon Plus (DE3)-RIL
# T1 sequence (Q93008 1551-1970): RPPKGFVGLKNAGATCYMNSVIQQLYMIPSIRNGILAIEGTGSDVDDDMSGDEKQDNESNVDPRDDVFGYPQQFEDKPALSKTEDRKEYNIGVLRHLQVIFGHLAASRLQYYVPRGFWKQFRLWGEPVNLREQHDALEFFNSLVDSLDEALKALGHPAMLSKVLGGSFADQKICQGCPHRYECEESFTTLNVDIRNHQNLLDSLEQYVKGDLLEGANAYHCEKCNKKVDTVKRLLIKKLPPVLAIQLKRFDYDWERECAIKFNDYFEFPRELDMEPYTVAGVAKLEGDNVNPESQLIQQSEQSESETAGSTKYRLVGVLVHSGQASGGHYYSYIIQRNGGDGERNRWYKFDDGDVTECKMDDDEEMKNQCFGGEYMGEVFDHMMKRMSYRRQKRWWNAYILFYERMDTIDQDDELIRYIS
# Excerpt: OTUD7B (residues 56-446), OTUD7A (residues 1-462), USP21 (residues 196-565), and USP9X (residues 1551-1970) proteins were expressed in E. Coli BL21-Codon Plus (DE3)-RIL cells. Through an N-terminal GST tag, the DUBs were purified by affinity chromatography using glutathione sepharose 4B (GS4B) resin. Following the liberation of the DUB from the GST tag. the DUBs were subjected to size exclusion chromatography (SEC). To form the K11-linked di-ub, individual ubiquitins (K11R-substituted donor Ub and ΔGG acceptor ubiquitin) were purified and fluorescently-labeled on an N-terminal cysteine using either Cy3- (donor) or Cy5-maleimide (acceptor). The different ubiquitins were then added to a mixture containing UBA1, UBE2S, and MgATP to form di-ub. After an overnight incubation at room temperature, UBE2S was removed by cation-exchange chromatography and the di-ub was purified by SEC. These proteins were used to monitor DUB activity in the presence or absence of the various inhibitors. The inhibitors were incubated with DUBs in a reaction buffer (20 mM Hepes pH=8.0, 200 mM NaCl, 0.25 mg/mL BSA and 0.005% Tween-20) for 5 min at room temperature and then 0.5 uM fluorescently-labeled di-ub (K11-linked) was added to start the reaction. 5×SDS-PAGE loading buffer was used to quench the reaction at the indicated time point. […] Mono-ubiquitin was quantified to generate an IC50 value. […]
# OTUD7A = molecular target: T2, OTUD7A (Homo sapiens, UniProt Q8TE49); assay: Ubiquitin-AMC assay, OTUD7A; format: biochemical; conditions: 50 μM 7Bi, 10 μM OTUD7A, 2 uM ubiquitin-AMC
# T2 construct: OTUD7A (residues 1-462); GST (N, cleaved yes); made in house; host or cells: E. coli BL21-Codon Plus (DE3)-RIL
# T2 sequence (Q8TE49 1-462): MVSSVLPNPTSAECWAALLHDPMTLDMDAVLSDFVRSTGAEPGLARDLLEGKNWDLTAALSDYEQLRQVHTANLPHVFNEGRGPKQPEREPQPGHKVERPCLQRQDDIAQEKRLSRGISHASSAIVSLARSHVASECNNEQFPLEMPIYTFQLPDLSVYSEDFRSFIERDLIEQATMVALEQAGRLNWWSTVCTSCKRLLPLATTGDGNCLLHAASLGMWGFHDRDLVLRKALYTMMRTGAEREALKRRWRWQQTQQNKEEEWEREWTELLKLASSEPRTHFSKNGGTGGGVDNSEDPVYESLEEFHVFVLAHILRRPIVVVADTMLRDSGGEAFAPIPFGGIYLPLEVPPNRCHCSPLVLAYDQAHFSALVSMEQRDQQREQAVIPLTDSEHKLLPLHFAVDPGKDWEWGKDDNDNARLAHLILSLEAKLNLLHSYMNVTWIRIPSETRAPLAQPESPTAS
# Protocol: 50 μM 7Bi were incubated with 300 nM OTUD7B (residues 56-446), 10 μM OTUD7A (residues 1-462), 200 nM USP21 (residues 196-565), or 500 nM USP9X (residues 1551-1970) in reaction buffer (20 mM HEPES pH=8.0, 200 mM NaCl, 0.25 mg/mL BSA and 0.005% Tween-20) for 5 min at room temperature. Then, 2 uM ubiquitin-AMC was added to start the reaction. The fluorescence emission data was collected at an excitation wavelength of 355 nm and emission wavelength of 460 nm every 3 min. Reactions were completed three times to generate the error bars.
structure (smiles),measurement,setting,value
Cc1cc(NC(=O)c2cnn(C)c2C(=O)Nc2cc(C)nn2C2CCCC2)n(C2CCCC2)n1 [7Bi],inhibition of USP9X,USP9X,failed to inhibit
same,inhibition of hydrolysis of ubiquitin-AMC by OTUD7A,OTUD7A,but not its close family member OTUD7A
